Results published in patent US12466856B2, “Echinocandin analogues and preparation method therefor” (SHANGHAI SENHUI MEDICINE CO., LTD., priority 2019, dated 2025).

Legend:
[1] = tested on: Candida albicans ATCC 90029; assay: MIC assay (CLSI M27-A3), Candida albicans ATCC 90029; type: cell-based; settings: first batch; 24 h, 35° C.; ≥50% growth inhibition
Procedure: (§1) After a test compound was serially diluted, an MIC (minimum inhibitory concentration) assay was performed on the standard Candida strain and an MEC (minimum effective concentration) assay on the standard Aspergillus strain. The MIC assay was performed according to the guidelines of the Clinical and Laboratory Standards Institute (CLSI M27-A3) and the MEC assay according to the guidelines of the Clinical and Laboratory Standards Institute (CLSI M38-A2).
(§2) The frozen strain was passaged at least twice, and a single colony was picked and resuspended in normal saline or sterile water in a tube. The suspension was vortexed and adjusted to 0.5 McF (1×10^6 to 5×10^6 CFU/mL) using a spectrophotometer at wavelength 530 nm. The suspension was 50-fold diluted with normal saline and then 20-fold diluted with 1×RPMI 1640 broth (1×10^3 to 5×10^3 CFU/mL). 10 μL of the suspension was applied to an SDA plate for colony counting, with a range from about 10 to 50 single colonies.
(§3) At this time, the bacterium concentration in each well should be 0.5×10^3 to 2.5×10^3 CFU/mL.
(§4) For echinocandin drugs, Aspergillus was incubated at 28° C. for 21-26 h, and then the MEC results were read.
(§5) Yeast-type fungi: A disposable sealing film was applied to the 96-well plate, and the mixture was well mixed by shaking. Observation was performed through a plate reader with the naked eye. Comparisons were made to the growth control, and the minimum compound concentration corresponding to ≥50% growth inhibition was defined as MIC. Pictures were taken and saved using an automatic plate reader.

[2] = tested on: Candida glabrata ATCC 15126; assay: MIC assay (CLSI M27-A3), Candida glabrata ATCC 15126; type: cell-based; settings: first batch; 24 h, 35° C.; ≥50% growth inhibition
Procedure: as §1, §2, §3, §4, §5

[3] = tested on: Candida parapsilosis ATCC 22019; assay: MIC assay (CLSI M27-A3), Candida parapsilosis ATCC 22019; type: cell-based; settings: first batch; 24 h, 35° C.; quality control strain
Procedure: as §1, §2, §3, §4, §5

[4] = tested on: Candida krusei ATCC 6258; assay: MIC assay (CLSI M27-A3), Candida krusei ATCC 6258; type: cell-based; settings: first batch; 24 h, 35° C.; quality control strain
Procedure: as §1, §2, §3, §4, §5

[5] = tested on: Meyerozyma guilliermondii ATCC 6260; assay: MIC assay (CLSI M27-A3), Meyerozyma guilliermondii ATCC 6260; type: cell-based; settings: first batch; 24 h, 35° C.
Procedure: as §1, §2, §3, §4, §5

[6] = tested on: Candida tropicalis ATCC 750; assay: MIC assay (CLSI M27-A3), Candida tropicalis ATCC 750; type: cell-based; settings: first batch; 24 h, 35° C.
Procedure: as §1, §2, §3, §4, §5

[7] = tested on: Aspergillus flavus ATCC 28539; assay: MEC assay (CLSI M38-A2), Aspergillus flavus ATCC 28539; type: cell-based; settings: first batch; 28° C., 21-26 h
Procedure: The MIC assay was performed according to the guidelines of the Clinical and Laboratory Standards Institute (CLSI M27-A3) and the MEC assay according to the guidelines of the Clinical and Laboratory Standards Institute (CLSI M38-A2).
Colonies on the plate were covered with about 1 mL of 0.85% normal saline or sterile water (polysorbate 20 was added at a final concentration of 0.1%-0.01%). […] The homogeneous upper layer of the suspension was transferred to a new sterile tube, which was then sealed and vortexed for 15 s (be careful as the suspension may produce an aerosol when the cover is removed). The concentration of the suspension was adjusted until an OD value of 0.09-0.13 was achieved using a spectrophotometer at 530 nm. […] 100 μL of sample was added to each well of the 96-well plate within 2 h after dilution (the final spore concentration in the susceptibility testing plate was at 0.4×10^4 to 5×10^4 CFU/mL).
Aspergillus: For echinocandin drugs, comparisons were made to the growth control under a plate reader, and the minimum drug concentration that could cause the hyphae to form small, round, compact hyphal particles was defined as MEC. For accurate determination of MEC values, the plate must not be vortexed before reading.

[8] = tested on: Candida albicans ATCC 90028; assay: MIC assay (CLSI M27-A3), Candida albicans ATCC 90028; type: cell-based; settings: second batch
Procedure: as §1, §2
At this time, the bacterium concentration in each well should be 0.5×10^3 to 2.5×10^3 CFU/mL. […]
as §5

[9] = tested on: Candida albicans ATCC 44858; assay: MIC assay (CLSI M27-A3), Candida albicans ATCC 44858; type: cell-based; settings: second batch
Procedure: as §1, §2, §3, §4, §5

[10] = tested on: Candida glabrata ATCC 36583; assay: MIC assay (CLSI M27-A3), Candida glabrata ATCC 36583; type: cell-based; settings: second batch
Procedure: as §1, §2, §3, §4, §5

[11] = tested on: Candida albicans (azole drug-resistant strain) R357; assay: MIC assay (CLSI M27-A3), Candida albicans azole drug-resistant strain R357; type: cell-based; settings: second batch
Procedure: as §1, §2, §3, §4, §5

[12] = tested on: Candida albicans (azole drug-resistant strain) R358; assay: MIC assay (CLSI M27-A3), Candida albicans azole drug-resistant strain R358; type: cell-based; settings: second batch
Procedure: as §1, §2, §3, §4, §5

[13] = tested on: Candida tropicalis (amphotericin-resistant strain) ATCC 200956; assay: microbe, parasite or virus in culture; type: cell-based; settings: second batch
Procedure: as §1, §2, §3, §4, §5

[14] = Plasma histamine assay after single intravenous injection in SD rats; type: in vivo; settings: SD rats
Procedure: (§6) 12 SD rats were divided into 2 groups of 6 (half are male and half female). […] The body weights were measured once before administration. Administration was performed by single intravenous injection for 20 min per animal. PK measurement was performed once before administration and 5 min, 30 min, 1 h, 4 h, 8 h, 24 h, 48 h, 72 h and 96 h after administration. A histamine assay was performed once before administration and 30 min, 4 h, 8 h and 24 h after administration.

[15] = Pharmacokinetic study after single intravenous injection in SD rats; type: in vivo; settings: 10 mg/kg single intravenous injection
Procedure: as §6

[16] = General state observation after single intravenous injection in SD rats; type: in vivo; settings: 10 mg/kg single intravenous injection
Procedure: as §6

## Rezafungin acetate
[1]
  MIC, Candida albicans ATCC 90029: 0.125 µg/mL
[2]
  MIC, Candida glabrata ATCC 15126: 0.125 µg/mL
[3]
  MIC, Candida parapsilosis ATCC 22019: 2 µg/mL
[4]
  MIC, Candida krusei ATCC 6258: 0.25 µg/mL
[5]
  MIC, Meyerozyma guilliermondii ATCC 6260: 2 µg/mL
[6]
  MIC, Candida tropicalis ATCC 750: 0.016 µg/mL
[7]
  MEC, Aspergillus flavus ATCC 28539: 0.031 µg/mL
[8]; 24 h, 35° C.
  MIC, Candida albicans ATCC 90028: 0.25 µg/mL
[8]; + 50% human serum
  MIC, Candida albicans + 50% human serum ATCC 90028: 0.25 µg/mL
[9]
  MIC, Candida albicans ATCC 44858: 0.25 µg/mL
[10]
  MIC, Candida glabrata ATCC 36583: 0.25 µg/mL
[11]
  MIC, Candida albicans (azole drug-resistant strain) R357: 0.25 µg/mL
[12]
  MIC, Candida albicans (azole drug-resistant strain) R358: 0.25 µg/mL
[13]
  MIC, Candida tropicalis (amphotericin-resistant strain) ATCC 200956: 0.25 µg/mL
[14]; 10 mg/kg i.v., 30 min after administration, p=0.046
  mean plasma histamine concentration relative to group 1: 4.5 times
[14]; 10 mg/kg single intravenous injection
  time at which plasma histamine concentration peaked: 30 min
[14]; 10 mg/kg single intravenous injection, 30 min after administration
  mean histamine concentration in the plasma: 1333.0 ng/mL
[15]; female SD rats
  AUC0-96: 205.8 µg·h/mL
  AUC0-inf: 227.2 µg·h/mL
  CL: 0.8 mL/min/kg
  Cmax: 8600 ng/mL
  MRTIV: 39.1 h
  T1/2: 27.9 h
  VdSS: 1.8 L/kg
[15]; male SD rats
  AUC0-96: 190.5 µg·h/mL
  AUC0-inf: 212.1 µg·h/mL
  CL: 0.8 mL/min/kg
  Cmax: 7800 ng/mL
  MRTIV: 38.4 h
  T1/2: 28.0 h
  VdSS: 1.8 L/kg
[16]
  general state observation: transient slight decrease in activity
